Measured values from ChEMBL document CHEMBL4823305, “Design, synthesis and antibacterial evaluation of novel 3-O-substituted 15-membered azalides possessing 1,2,3-triazole side chains” (2021).
Converted amounts (≈) assume the structure as drawn.

Tests used:
Type in all cases: functional
Staphylococcus aureus [1] = test: Antibacterial activity against erythromycin-susceptible Staphylococcus aureus ATCC25923 by broth microdilution method
Enterococcus faecalis = test: Antibacterial activity against vancomycin-susceptible Enterococcus faecalis ATCC29212 by broth microdilution method
Bacillus subtilis = test: Antibacterial activity against penicillin-susceptible Bacillus subtilis ATCC9372 by broth microdilution method
Enterococcus faecium = test: Antibacterial activity against clinical isolate erythromycin-resistant Enterococcus faecium by broth microdilution method
Staphylococcus aureus [2] = test: Antibacterial activity against methicillin-resistant Staphylococcus aureus ATCC43300 by broth microdilution method
Staphylococcus aureus [3] = test: Antibacterial activity against penicillin-resistant Staphylococcus aureus by broth microdilution method
Klebsiella pneumoniae = test: Antibacterial activity against Klebsiella pneumoniae ATCC10031 by broth microdilution method
Staphylococcus aureus [4] = test: Bactericidal activity against methicillin-resistant Staphylococcus aureus ATCC43300
[5] = Ratio of MBC for bactericidal activity against methicillin-resistant Staphylococcus aureus ATCC43300 to MIC for antibacterial activity against methicillin-resistant Staphylococcus aureus ATCC43300 by broth microdilution method

## CCOc1ccc(-c2cn(CC(=O)NNC(=O)O[C@H]3[C@H](C)[C@@H](O[C@@H]4O[C@H](C)C[C@H](N(C)C)[C@H]4O)[C@](C)(O)C[C@@H](C)CN(C)[C@H](C)[C@H]4OC(=O)O[C@]4(C)[C@@H](CC)OC(=O)[C@@H]3C)nn2)cc1
Staphylococcus aureus [1]
  MIC: 32 µg/mL (≈ 35.4 µM)
Enterococcus faecalis
  MIC: 16 µg/mL (≈ 17.7 µM)
Bacillus subtilis
  MIC: 64 µg/mL (≈ 70.8 µM)
Enterococcus faecium
  MIC: 128 µg/mL (≈ 142 µM)
Staphylococcus aureus [2]
  MIC: 128 µg/mL (≈ 142 µM)
Staphylococcus aureus [3]
  MIC: 128 µg/mL (≈ 142 µM)
Klebsiella pneumoniae
  MIC: 32 µg/mL (≈ 35.4 µM)

## CCCCc1ccc(-c2cn(CC(=O)NNC(=O)O[C@H]3[C@H](C)[C@@H](O[C@@H]4O[C@H](C)C[C@H](N(C)C)[C@H]4O)[C@](C)(O)C[C@@H](C)CN(C)[C@H](C)[C@H]4OC(=O)O[C@]4(C)[C@@H](CC)OC(=O)[C@@H]3C)nn2)cc1
Staphylococcus aureus [1]
  MIC: 8 µg/mL (≈ 8.73 µM)
Enterococcus faecalis
  MIC: 4 µg/mL (≈ 4.37 µM)
Bacillus subtilis
  MIC: 8 µg/mL (≈ 8.73 µM)
Enterococcus faecium
  MIC: 16 µg/mL (≈ 17.5 µM)
Staphylococcus aureus [2]
  MIC: 32 µg/mL (≈ 34.9 µM)
Staphylococcus aureus [3]
  MIC: 32 µg/mL (≈ 34.9 µM)
Klebsiella pneumoniae
  MIC: 16 µg/mL (≈ 17.5 µM)
Staphylococcus aureus [4]
  MBC: > 256 µg/mL
[5]
  Ratio: >8

## CC[C@H]1OC(=O)[C@H](C)[C@@H](O[C@H]2C[C@@](C)(OC)[C@@H](O)[C@H](C)O2)[C@H](C)[C@@H](O[C@@H]2O[C@H](C)C[C@H](N(C)C)[C@H]2O)[C@](C)(O)C[C@@H](C)CN(C)[C@H](C)[C@@H](O)[C@]1(C)O [AZITHROMYCIN]
Staphylococcus aureus [1]
  MIC: < 0.25 µg/mL
Enterococcus faecalis
  MIC: 4 µg/mL (≈ 5.34 µM)
Bacillus subtilis
  MIC: < 0.25 µg/mL
Enterococcus faecium
  MIC: 256 µg/mL (≈ 342 µM)
Staphylococcus aureus [2]
  MIC: > 256 µg/mL
Staphylococcus aureus [3]
  MIC: > 256 µg/mL
Klebsiella pneumoniae
  MIC: 2 µg/mL (≈ 2.67 µM)

## CC[C@H]1OC(=O)[C@H](C)[C@@H](OC(=O)NNC(=O)Cn2cc(-c3cccc(F)c3)nn2)[C@H](C)[C@@H](O[C@@H]2O[C@H](C)C[C@H](N(C)C)[C@H]2O)[C@](C)(O)C[C@@H](C)CN(C)[C@H](C)[C@H]2OC(=O)O[C@@]21C
Staphylococcus aureus [1]
  MIC: 32 µg/mL (≈ 36.4 µM)
Enterococcus faecalis
  MIC: 32 µg/mL (≈ 36.4 µM)
Bacillus subtilis
  MIC: 64 µg/mL (≈ 72.9 µM)
Enterococcus faecium
  MIC: 128 µg/mL (≈ 146 µM)
Staphylococcus aureus [2]
  MIC: 256 µg/mL (≈ 292 µM)
Staphylococcus aureus [3]
  MIC: 256 µg/mL (≈ 292 µM)
Klebsiella pneumoniae
  MIC: 64 µg/mL (≈ 72.9 µM)

## CC[C@H]1OC(=O)[C@H](C)[C@@H](OC(=O)NNC(=O)Cn2cc(-c3cccc(C)c3)nn2)[C@H](C)[C@@H](O[C@@H]2O[C@H](C)C[C@H](N(C)C)[C@H]2O)[C@](C)(O)C[C@@H](C)CN(C)[C@H](C)[C@H]2OC(=O)O[C@@]21C
Staphylococcus aureus [1]
  MIC: 64 µg/mL (≈ 73.2 µM)
Enterococcus faecalis
  MIC: 32 µg/mL (≈ 36.6 µM)
Bacillus subtilis
  MIC: 64 µg/mL (≈ 73.2 µM)
Enterococcus faecium
  MIC: 128 µg/mL (≈ 146 µM)
Staphylococcus aureus [2]
  MIC: 128 µg/mL (≈ 146 µM)
Staphylococcus aureus [3]
  MIC: 256 µg/mL (≈ 293 µM)
Klebsiella pneumoniae
  MIC: 16 µg/mL (≈ 18.3 µM)

## CCc1ccc(-c2cn(CC(=O)NNC(=O)O[C@H]3[C@H](C)[C@@H](O[C@@H]4O[C@H](C)C[C@H](N(C)C)[C@H]4O)[C@](C)(O)C[C@@H](C)CN(C)[C@H](C)[C@H]4OC(=O)O[C@]4(C)[C@@H](CC)OC(=O)[C@@H]3C)nn2)cc1
Staphylococcus aureus [1]
  MIC: 16 µg/mL (≈ 18 µM)
Enterococcus faecalis
  MIC: 32 µg/mL (≈ 36 µM)
Bacillus subtilis
  MIC: 32 µg/mL (≈ 36 µM)
Enterococcus faecium
  MIC: 32 µg/mL (≈ 36 µM)
Staphylococcus aureus [2]
  MIC: 64 µg/mL (≈ 72.1 µM)
Staphylococcus aureus [3]
  MIC: 64 µg/mL (≈ 72.1 µM)
Klebsiella pneumoniae
  MIC: 16 µg/mL (≈ 18 µM)

## CC[C@H]1OC(=O)[C@H](C)[C@@H](OC(=O)NNC(=O)Cn2cc(-c3cccc(Cl)c3)nn2)[C@H](C)[C@@H](O[C@@H]2O[C@H](C)C[C@H](N(C)C)[C@H]2O)[C@](C)(O)C[C@@H](C)CN(C)[C@H](C)[C@H]2OC(=O)O[C@@]21C
Staphylococcus aureus [1]
  MIC: 64 µg/mL (≈ 71.6 µM)
Enterococcus faecalis
  MIC: 16 µg/mL (≈ 17.9 µM)
Bacillus subtilis
  MIC: 64 µg/mL (≈ 71.6 µM)
Enterococcus faecium
  MIC: 64 µg/mL (≈ 71.6 µM)
Staphylococcus aureus [2]
  MIC: 128 µg/mL (≈ 143 µM)
Staphylococcus aureus [3]
  MIC: 256 µg/mL (≈ 286 µM)
Klebsiella pneumoniae
  MIC: 16 µg/mL (≈ 17.9 µM)

## CCCc1ccc(-c2cn(CC(=O)NNC(=O)O[C@H]3[C@H](C)[C@@H](O[C@@H]4O[C@H](C)C[C@H](N(C)C)[C@H]4O)[C@](C)(O)C[C@@H](C)CN(C)[C@H](C)[C@H]4OC(=O)O[C@]4(C)[C@@H](CC)OC(=O)[C@@H]3C)nn2)cc1
Staphylococcus aureus [1]
  MIC: 16 µg/mL (≈ 17.7 µM)
Enterococcus faecalis
  MIC: 8 µg/mL (≈ 8.87 µM)
Bacillus subtilis
  MIC: 16 µg/mL (≈ 17.7 µM)
Enterococcus faecium
  MIC: 32 µg/mL (≈ 35.5 µM)
Staphylococcus aureus [2]
  MIC: 64 µg/mL (≈ 70.9 µM)
Staphylococcus aureus [3]
  MIC: 64 µg/mL (≈ 70.9 µM)
Klebsiella pneumoniae
  MIC: 16 µg/mL (≈ 17.7 µM)

## CC[C@H]1OC(=O)[C@H](C)[C@@H](OC(=O)NNC(=O)Cn2cc(-c3ccccc3)nn2)[C@H](C)[C@@H](O[C@@H]2O[C@H](C)C[C@H](N(C)C)[C@H]2O)[C@](C)(O)C[C@@H](C)CN(C)[C@H](C)[C@H]2OC(=O)O[C@@]21C
Staphylococcus aureus [1]
  MIC: 32 µg/mL (≈ 37.2 µM)
Enterococcus faecalis
  MIC: 16 µg/mL (≈ 18.6 µM)
Bacillus subtilis
  MIC: 128 µg/mL (≈ 149 µM)
Enterococcus faecium
  MIC: 64 µg/mL (≈ 74.4 µM)
Staphylococcus aureus [2]
  MIC: 256 µg/mL (≈ 298 µM)
Staphylococcus aureus [3]
  MIC: 256 µg/mL (≈ 298 µM)
Klebsiella pneumoniae
  MIC: 32 µg/mL (≈ 37.2 µM)

## CC[C@H]1OC(=O)[C@H](C)[C@@H](OC(=O)NNC(=O)Cn2cc(-c3ccc(C)cc3)nn2)[C@H](C)[C@@H](O[C@@H]2O[C@H](C)C[C@H](N(C)C)[C@H]2O)[C@](C)(O)C[C@@H](C)CN(C)[C@H](C)[C@H]2OC(=O)O[C@@]21C
Staphylococcus aureus [1]
  MIC: 32 µg/mL (≈ 36.6 µM)
Enterococcus faecalis
  MIC: 32 µg/mL (≈ 36.6 µM)
Bacillus subtilis
  MIC: 64 µg/mL (≈ 73.2 µM)
Enterococcus faecium
  MIC: 64 µg/mL (≈ 73.2 µM)
Staphylococcus aureus [2]
  MIC: 256 µg/mL (≈ 293 µM)
Staphylococcus aureus [3]
  MIC: 256 µg/mL (≈ 293 µM)
Klebsiella pneumoniae
  MIC: 16 µg/mL (≈ 18.3 µM)
